Among the data in US11414431B2, “Substituted pyrazolo[1,5-a]pyrimidines as TYK2 inhibitors” (Nimbus Lakshmi, Inc., priority 2018, dated 2022) are IC50 and Kd values, retold here.

For assay [1], the system named is IL-12 induced STAT4 phosphorlyation mediated by TYK2/JAK2. Put plainly: IL-12 Induced pSTAT4 in Human PBMC. The format is cell-based. To be noted: 1.7 ng/mL IL-12 for 30 minutes. Put shortly:
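Thawed human PBMC pre-incubated with compound 1 hr at 37° C (0.1% DMSO final), then stimulated 30 minutes with IL-12 at 1.7 ng/mL final. pSTAT4 and total STAT4 measured in cell lysates with MSD reagents.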

Assay [2] addresses human TYK2 (JH2domain-pseudokinase) (Homo sapiens (Human), UniProt P29597). Put plainly: TYK2 JH2 Domain Binding Assay (KINOMEscan). To be noted: 11-point 3-fold dilution, top concentration 30,000 nM, duplicate; read-out: hTYK2_JH2_Binding (Kd; nM). The method, boiled down: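 KINOMEscan competition binding: HEK293-expressed NFkB-fused TYK2 JH2 (G556–D888), DNA-tagged, against immobilized ligand beads, 1 h shaking at room temperature, 0.9% DMSO. Bound kinase quantified by qPCR.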

Chain of human TYK2 (JH2domain-pseudokinase) (P29597 556-888): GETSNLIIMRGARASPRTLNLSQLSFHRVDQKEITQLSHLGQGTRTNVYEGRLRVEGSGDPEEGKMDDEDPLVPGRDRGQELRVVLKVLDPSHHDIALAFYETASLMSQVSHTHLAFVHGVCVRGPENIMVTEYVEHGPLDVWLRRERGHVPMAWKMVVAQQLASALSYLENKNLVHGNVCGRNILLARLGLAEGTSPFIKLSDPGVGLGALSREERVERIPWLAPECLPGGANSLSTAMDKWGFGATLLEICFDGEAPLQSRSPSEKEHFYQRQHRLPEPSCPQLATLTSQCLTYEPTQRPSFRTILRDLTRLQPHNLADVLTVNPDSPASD

For `CNc1cc(Nc2cccn([C@H]3C[C@H](F)C3)c2=O)nc2c(C(=O)N[C@H]3C[C@@H]3OC)cnn12` [Compound I-138], the half-maximal inhibitory concentration (IC50) in assay [1] is less than 0.1 µM. Besides, the Kd in assay [2] is less than 0.2 nM.

`CNc1cc(Nc2cccn([C@H]3C[C@H](OC)C3)c2=O)nc2c(C(=O)NC3CCC3)cnn12` [Compound I-141]: in assay [1], the IC50 is less than 0.1 µM. Also, the Kd in assay [2] was less than 0.2 nM.

In turn, `CNc1cc(Nc2cccn([C@H]3[C@@H]4COC[C@@H]43)c2=O)nc2c(C(=O)NC3CCC3)cnn12` [Compound I-142] yielded an IC50 in assay [1] of less than 0.1 µM. Further, the equilibrium dissociation constant (Kd) in assay [2] is less than 0.2 nM.

In assay [1], `CNc1cc(Nc2cccn(C3CCOCC3)c2=O)nc2c(C(=O)NC3CCC3)cnn12` [Compound I-143] had an IC50 of less than 0.1 µM. In addition, in assay [2], the Kd is less than 0.2 nM.

Take `CNc1cc(Nc2cccn(-c3ocnc3C)c2=O)nc2c(C(=O)NC3CCC3)cnn12` [Compound I-144]: in assay [1], the IC50 was less than 0.1 µM. The Kd in assay [2] is less than 0.2 nM.

Turning to `CNc1cc(Nc2cccn(C3COC3)c2=O)nc2c(C(=O)NC3CC[C@H]3F)cnn12` (some centres unmarked) [Compound I-160], the 50% inhibitory concentration (IC50) in assay [1] was less than 0.1 µM. For the same compound, the Kd in assay [2] was less than 0.2 nM.

In assay [1], `CNc1cc(Nc2cccn(C3COC3)c2=O)nc2c(C(=O)N[C@@H]3CC[C@@H]3F)cnn12` [Compound I-162] showed a half-maximal inhibitory concentration (IC50) of less than 0.1 µM. Also, the Kd in assay [2] was less than 0.2 nM.

In assay [1], `CNc1cc(Nc2cccn(C3COC3)c2=O)nc2c(C(=O)NC3CC[C@@H]3F)cnn12` (some centres unmarked) [Compound I-163] showed an IC50 of less than 0.1 µM. In addition, the Kd in assay [2] is less than 0.2 nM.

`CNc1cc(Nc2cccn(-c3ocnc3C)c2=O)nc2c(C(=O)NC3CC[C@@H]3F)cnn12` (some centres unmarked) [Compound I-185] gave an IC50 in assay [1] of less than 0.1 µM. Also, the Kd in assay [2] is less than 0.2 nM.

`CNc1cc(Nc2cccn(-c3ocnc3C)c2=O)nc2c(C(=O)N[C@H]3CC[C@@H]3F)cnn12` [Compound I-186] returned an IC50 in assay [1] of less than 0.1 µM. For the same compound, in assay [2], the Kd was less than 0.2 nM.

Turning to `CO[C@H]1CC[C@@H]1NC(=O)c1cnn2c(N)cc(Nc3cccn(-c4ccccn4)c3=O)nc12` [Compound I-246], the IC50 in assay [1] fell in the range of 0.1 to 0.5 µM. Besides, in assay [2], the Kd is less than 0.2 nM.

In the case of `CO[C@@H]1CC[C@H]1NC(=O)c1cnn2c(N)cc(Nc3cccn(-c4ccccn4)c3=O)nc12` [Compound I-247], the IC50 in assay [1] was 0.1 to 0.5 µM. Besides, in assay [2], the Kd was more than 10 nM.

The compound `CNc1cc(Nc2cccn([C@H]3[C@@H]4COC[C@@H]43)c2=O)nc2c(C(=O)N[C@H]3CCC3(F)F)cnn12` [Compound I-307] had an IC50 in assay [1] of less than 0.1 µM. The Kd in assay [2] is less than 0.2 nM.

For `CNc1cc(Nc2cccn(C(C)C)c2=O)nc2c(C(=O)N[C@@H]3CC[C@@]3(C)O)cnn12` [Compound I-341], the half-maximal inhibitory concentration (IC50) in assay [1] was less than 0.1 µM. For the same compound, the Kd in assay [2] is less than 0.2 nM.

In assay [1], `CNc1ccc(-c2cc(NC)n3ncc(C(=O)N[C@@H]4C[C@@H]4F)c3n2)n2ccnc12` [Compound I-479] gave an IC50 of less than 0.1 µM. Also, the Kd in assay [2] is less than 0.2 nM.

`CNc1ccc(-c2cc(NC)n3ncc(C(=O)NC4CC[C@@H]4OC)c3n2)n2ccnc12` (some centres unmarked) [Compound I-488]: the half-maximal inhibitory concentration (IC50) in assay [1] is less than 0.1 µM. Further, the Kd in assay [2] is less than 0.2 nM.

`CNc1ccc(-c2cc(NC)n3ncc(C(=O)N[C@@H]4CC[C@H]4OC)c3n2)n2ccnc12` [Compound I-490] yielded an IC50 in assay [1] of less than 0.1 µM. Besides, the Kd in assay [2] was less than 0.2 nM.

`CNc1cc(-c2cn([C@H]3C[C@@H](O)C3)c3ncccc23)nc2c(C(=O)NC3CC3)cnn12` [Compound I-495] had an IC50 in assay [1] of less than 0.1 µM. The Kd in assay [2] is less than 0.2 nM.

Regarding `CNc1cc(-c2cn([C@H]3C[C@@H](O)C3)c3ncccc23)nc2c(C(=O)N[C@@H]3C[C@@H]3F)cnn12` [Compound I-500], the IC50 in assay [1] lay within 0.1 to 0.5 µM. Further, the Kd in assay [2] is less than 0.2 nM.

In assay [1], `CNc1cc(-c2cn([C@@H]3COC[C@H]3O)c3ncccc23)nc2c(C(=O)N[C@@H]3C[C@@H]3F)cnn12` [Compound I-502] gave an IC50 of 0.1 to 0.5 µM. For the same compound, the Kd in assay [2] was less than 0.2 nM.

Turning to `CNc1cc(-c2cn(C3COC3)c3ncccc23)nc2c(C(=O)NC3CC[C@@H]3F)cnn12` (some centres unmarked) [Compound I-507], the IC50 in assay [1] is less than 0.1 µM. For the same compound, in assay [2], the Kd was less than 0.2 nM.

In assay [1], `CNc1cc(-c2cn(C3COC3)c3ncccc23)nc2c(C(=O)N[C@H]3CC[C@@H]3F)cnn12` [Compound I-508] returned an IC50 of less than 0.1 µM. In assay [2], the Kd was less than 0.2 nM.

In turn, `CNc1cc(-c2cn(C3CN(C)C3)c3ncccc23)nc2c(C(=O)NC3CC[C@@H]3OC)cnn12` (some centres unmarked) [Compound I-608] showed a concentration for half-maximal inhibition (IC50) in assay [1] of less than 0.1 µM. In assay [2], the Kd is less than 0.2 nM.

`O=C(N[C@@H]1C[C@@H]1F)c1cnn2c3c(c(Nc4cccc5ocnc45)nc12)OCCN3` [Compound I-752] displayed an IC50 in assay [1] of less than 0.1 µM. For the same compound, the Kd in assay [2] was less than 0.2 nM.

`CC(C)n1cc(-c2nc3c(C(=O)NC4CC[C@H]4O)cnn3c3c2OCCN3)c2cccnc21` (some centres unmarked) [Compound I-753] displayed an IC50 in assay [1] of less than 0.1 µM. The Kd in assay [2] is less than 0.2 nM.

Turning to `CC(C)n1cc(-c2nc3c(C(=O)N[C@H]4CC[C@H]4O)cnn3c3c2OCCN3)c2cccnc21` [Compound I-754], in assay [1], the IC50 was less than 0.1 µM. The Kd in assay [2] was less than 0.2 nM.

For the compound `O=C(NC1CC[C@@H]1F)c1cnn2c3c(c(-c4cn([C@H]5C[C@H](O)C5)c5ncccc45)nc12)OCCN3` (some centres unmarked) [Compound I-756], the IC50 in assay [1] is less than 0.1 µM. Further, the Kd in assay [2] is less than 0.2 nM.

`O=C(N[C@H]1CC[C@@H]1F)c1cnn2c3c(c(-c4cn([C@H]5C[C@H](O)C5)c5ncccc45)nc12)OCCN3` [Compound I-757] had a half-maximal inhibitory concentration (IC50) in assay [1] of less than 0.1 µM. For the same compound, the Kd in assay [2] was less than 0.2 nM.

In assay [1], `CO[C@@H]1CCC1NC(=O)c1cnn2c3c(c(Nc4cccn([C@H]5[C@@H]6COC[C@@H]65)c4=O)nc12)OCCN3` (some centres unmarked) [Compound I-762] displayed an IC50 of less than 0.1 µM. Also, in assay [2], the Kd is less than 0.2 nM.

For `CC(C)n1cccc(Nc2nc3c(C(=O)NC4CCC4(F)F)cnn3c3c2OCCN3)c1=O` (centres unmarked) [Compound I-765], the IC50 in assay [1] was less than 0.1 µM. Further, in assay [2], the Kd is less than 0.2 nM.

Take `CC(C)n1cccc(Nc2nc3c(C(=O)N[C@H]4CCC4(F)F)cnn3c3c2OCCN3)c1=O` [Compound I-766]: in assay [1], the IC50 was less than 0.1 µM. The Kd in assay [2] was less than 0.2 nM.

`O=C(NC1CCC1(F)F)c1cnn2c3c(c(Nc4cccn([C@H]5[C@@H]6COC[C@@H]65)c4=O)nc12)OCCN3` (some centres unmarked) [Compound I-768] showed an IC50 in assay [1] of less than 0.1 µM. The dissociation constant (Kd) in assay [2] is less than 0.2 nM.

Turning to `O=C(N[C@@H]1CCC1(F)F)c1cnn2c3c(c(Nc4cccn([C@H]5[C@@H]6COC[C@@H]65)c4=O)nc12)OCCN3` [Compound I-769], the IC50 in assay [1] is less than 0.1 µM. Also, the Kd in assay [2] is less than 0.2 nM.

`O=C(NC1CCC1(F)F)c1cnn2c3c(c(-c4cn(C5COC5)c5ncccc45)nc12)OCCN3` (centres unmarked) [Compound I-771, N-(2,2-Difluorocyclobutyl)-5-(1-(oxetan-3-yl)-1H-pyrrolo[2,3-b]pyridin-3-yl)-2,3-dihydro-1H-pyrazolo[5′,1′:2,3]pyrimido[5,4-b][1,4]oxazine-7-carboxamide] showed an IC50 in assay [1] (0.5 h) of less than 0.1 µM. Also, the Kd in assay [2] was less than 0.2 nM.

Take `O=C(N[C@@H]1CCC1(F)F)c1cnn2c3c(c(-c4cn(C5COC5)c5ncccc45)nc12)OCCN3` [Compound I-772]: the IC50 in assay [1] was less than 0.1 µM. Also, in assay [2], the Kd is less than 0.2 nM.

In turn, `O=C(NC1CC[C@@H]1F)c1cnn2c3c(c(-c4cn(C5COC5)c5ncccc45)nc12)OCCN3` (some centres unmarked) [Compound I-774] showed a half-inhibitory concentration (IC50) in assay [1] of less than 0.1 µM. In addition, the Kd in assay [2] is less than 0.2 nM.

In turn, `CNc1cc(-c2cnc3n([C@H]4COC[C@@H]4O)cccc2-3)nc2c(C(=O)NC3CC3)cnn12` [Compound I-816] came in with an IC50 in assay [1] of less than 0.1 µM. The Kd in assay [2] was less than 0.2 nM.

In turn, `CNc1cc(-c2cnc3n([C@@H]4COC[C@H]4O)cccc2-3)nc2c(C(=O)NC3CC3)cnn12` [Compound I-817] showed an IC50 in assay [1] of less than 0.1 µM. In addition, the Kd in assay [2] is less than 0.2 nM.

In assay [1] (0.5 h), `CNc1cc(-c2cnc3n([C@@H]4CCOC[C@H]4O)cccc2-3)nc2c(C(=O)NC3CC3)cnn12` [Compound I-818, N-Cyclopropyl-5-(7-((3S,4R)-3-hydroxytetrahydro-2H-pyran-4-yl)-7H-pyrrolo[2,3-b]pyridin-3-yl)-7-(methylamino)pyrazolo[1,5-a]pyrimidine-3-carboxamide] registered an IC50 of less than 0.1 µM. For the same compound, the Kd in assay [2] is less than 0.2 nM.

On to `CNc1cc(-c2cnc3n([C@H]4CCOC[C@@H]4O)cccc2-3)nc2c(C(=O)NC3CC3)cnn12` [Compound I-819], for which the IC50 in assay [1] was less than 0.1 µM. The Kd in assay [2] is less than 0.2 nM.

`CNc1cc(-c2cnc3n([C@H]4COC[C@@H]4O)cccc2-3)nc2c(C(=O)N[C@@H]3C[C@@H]3F)cnn12` [Compound I-820] yielded an IC50 in assay [1] of less than 0.1 µM. Moreover, in assay [2], the Kd was less than 0.2 nM.

In assay [1], `CNc1cc(-c2cnc3n([C@@H]4COC[C@H]4O)cccc2-3)nc2c(C(=O)N[C@@H]3C[C@@H]3F)cnn12` [Compound I-821] came in with a 50% inhibitory concentration (IC50) of 0.1 to 0.5 µM. Also, in assay [2], the Kd is less than 0.2 nM.

In turn, `CNc1cc(-c2cnc3n([C@@H]4CCOC[C@H]4O)cccc2-3)nc2c(C(=O)N[C@@H]3C[C@@H]3F)cnn12` [Compound I-824] gave an IC50 in assay [1] of less than 0.1 µM. Also, the Kd in assay [2] was less than 0.2 nM.

`CNc1cc(-c2cnc3n([C@H]4CCOC[C@@H]4O)cccc2-3)nc2c(C(=O)N[C@@H]3C[C@@H]3F)cnn12` [Compound I-825] displayed an IC50 in assay [1] of less than 0.1 µM. For the same compound, the Kd in assay [2] is less than 0.2 nM.

For `CNc1cc(-c2cn([C@H]3C[C@@H](COC)C3)c3ncccc23)nc2c(C(=O)N[C@H]3CC[C@@H]3OC)cnn12` [Compound I-933], in assay [1], the IC50 was less than 0.1 µM. Further, the Kd in assay [2] was less than 0.2 nM.

On to `CNc1cc(-c2cn([C@H]3[C@@H]4COC[C@@H]43)c3ncccc23)nc2c(C(=O)N[C@@H]3CC[C@H]3O)cnn12` [Compound I-960], for which the IC50 in assay [1] fell in the range of 0.1 to 0.5 µM. Moreover, in assay [2], the Kd is less than 0.2 nM.

A word on the IC50: it is the midpoint of a concentration-inhibition curve. As a reminder, the Kd is the concentration at which binding is half-saturated.
